The record followed here is ChEMBL document CHEMBL1147027, “The role of fluorine substitution in the structure-activity relationships (SAR) of classical cannabinoids” (2007).

The species entered for assay [1] is Mus musculus. Description: Effect on behavioral activity in mouse assessed as spontaneous activity by tetrad test. It is filed as functional.
For assay [2], the species on record is Mus musculus. The experiment in a line: Effect on behavioral activity in mouse assessed as tail flick by tetrad test. In kind it is functional.
For assay [3], the species on record is Mus musculus. The experiment in a line: Effect on behavioral activity in mouse assessed as rectal temperature by tetrad test. It is filed as functional.
Assay [4] addresses Cannabinoid receptor 1 (Homo sapiens) (UniProt P21554). The experiment in a line: Binding affinity to CB1 receptor.
The test system of assay [5] is Mus musculus. Description: Effect on behavioral activity in mouse assessed as spontaneous activity by tetrad test at 30 mg/kg. It is filed as functional.
Assay [6] deals with Mus musculus. The experiment in a line: Effect on behavioral activity in mouse assessed as tail flick by tetrad test at 30 mg/kg. In kind it is functional.
In assay [7] the test system is Mus musculus. The experiment in a line: Effect on behavioral activity in mouse assessed as rectal temperature by tetrad test at 30 mg/kg. It is filed as functional.
Assay [8] addresses Cannabinoid receptor 2 (Homo sapiens) (UniProt P34972). Description: Binding affinity to CB2 receptor.
Assay [9] deals with Mus musculus. The experiment in a line: Effect on behavioral activity in intrathecally dosed mouse assessed as tail flick by tetrad test. In kind it is functional.
Assay [10] concerns Mus musculus. Description: Effect on behavioral activity in intrathecally dosed mouse assessed as tail flick by tetrad test at 100 mg/kg. It is filed as functional.

SMILES strings stand for the structures.

Cannabinoid receptor 1 (Homo sapiens), sequence (P21554 whole entry): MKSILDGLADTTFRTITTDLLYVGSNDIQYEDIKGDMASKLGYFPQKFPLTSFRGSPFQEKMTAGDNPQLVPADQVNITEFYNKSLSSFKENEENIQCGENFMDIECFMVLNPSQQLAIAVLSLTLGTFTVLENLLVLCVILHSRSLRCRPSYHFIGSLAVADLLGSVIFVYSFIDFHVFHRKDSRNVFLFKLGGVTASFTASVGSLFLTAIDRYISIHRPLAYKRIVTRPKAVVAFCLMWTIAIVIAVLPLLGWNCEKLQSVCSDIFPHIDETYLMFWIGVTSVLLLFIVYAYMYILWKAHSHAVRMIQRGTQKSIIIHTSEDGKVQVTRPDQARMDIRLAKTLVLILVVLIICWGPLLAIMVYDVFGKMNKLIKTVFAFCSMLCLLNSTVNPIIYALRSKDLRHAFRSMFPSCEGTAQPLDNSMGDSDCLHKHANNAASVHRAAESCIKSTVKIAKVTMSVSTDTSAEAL
Cannabinoid receptor 2 (Homo sapiens), sequence (P34972 whole entry): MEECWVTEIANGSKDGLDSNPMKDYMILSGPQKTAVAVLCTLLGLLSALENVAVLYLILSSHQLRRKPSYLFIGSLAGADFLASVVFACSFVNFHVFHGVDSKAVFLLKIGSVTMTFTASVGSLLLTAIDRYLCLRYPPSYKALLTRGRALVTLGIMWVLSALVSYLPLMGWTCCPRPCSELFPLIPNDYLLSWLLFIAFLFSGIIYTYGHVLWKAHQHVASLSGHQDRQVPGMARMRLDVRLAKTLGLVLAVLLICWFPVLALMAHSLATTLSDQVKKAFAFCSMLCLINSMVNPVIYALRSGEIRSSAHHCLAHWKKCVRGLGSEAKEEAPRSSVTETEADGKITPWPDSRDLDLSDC

Take `CCCCCC#Cc1cc(O)c2c(c1)OC(C)(C)[C@@H]1CC=C(C)C[C@@H]21`: the median effective dose (ED50) in the assay listed under Mus musculus [1] worked out at 3.68 mg/kg; in the assay listed under Mus musculus [2] it was 3.24 mg/kg; in the assay listed under Mus musculus [3], 2.96 mg/kg. Besides, in assay [4], the Activity worked out at 36 nM.
As to `CCCCCC#Cc1cc(F)c2c(c1)OC(C)(C)[C@@H]1CC=C(C)C[C@@H]21`, the Activity in the assay with Mus musculus [5] was 8%; with Mus musculus [6], 4%; in the assay with Mus musculus [7], -2.2 °C; in assay [4], greater than 10000 nM; in assay [8], greater than 4550 nM; with Mus musculus [9] it was 156.9 µg.
Regarding `CCCCC/C=C/c1cc(O)c2c(c1)OC(C)(C)[C@@H]1CC=C(C)C[C@@H]21`, the ED50 in the assay listed under Mus musculus [1] was 0.09 mg/kg; in the assay listed under Mus musculus [2], 0.09 mg/kg; in the assay listed under Mus musculus [3] it was 0.13 mg/kg. For the same molecule, in assay [4], the Activity came to 0.86 nM.
For the molecule `CCCCCc1cc(O)c2c(c1)OC(C)(C)[C@@H]1CCC(C)=C[C@@H]21` [DRONABINOL], the ED50 in the assay filed under Mus musculus [1] was 1 mg/kg; in the assay filed under Mus musculus [2], 1.4 mg/kg; in the assay listed under Mus musculus [3], 1.4 mg/kg. For the same molecule, the Activity in the assay on Mus musculus [9] was 29 µg.
Turning to `CCCCC/C=C/c1cc(F)c2c(c1)OC(C)(C)[C@@H]1CC=C(C)C[C@@H]21`, the Activity was 285 nM in assay [4] and 40 nM in assay [8].
Consider `CCCCCCCc1cc(F)c2c(c1)OC(C)(C)[C@@H]1CC=C(C)C[C@@H]21`, for which the ED50 is 31.1 mg/kg in the assay filed under Mus musculus [1], 21.5 mg/kg in the assay filed under Mus musculus [2] and 6.9 mg/kg in the assay filed under Mus musculus [3]. In addition, the figures for the Activity (in assay [4]; in [8]; in the assay on Mus musculus [10]) were 1560 nM, 1510 nM and 36%, respectively.
